pEC50: −log10 of the molar value.
Assays:
Assay type in all cases: cell-based
SMARCA2 = target: T1, SMARCA2 (Homo sapiens, UniProt P51531); assay: SMARCA2 degradation in VCaP cells by Western blot; conditions: 16 hours
T1 construct: Determination of SMARCA2 and SMARCA4 Degradation in VCaP Cells by Western Blot; endogenous in cells; host or cells: VCaP (ATCC CRL-2876)
Description: Example-P2: Determination of SMARCA2 and SMARCA4 Degradation in VCaP Cells by Western Blot
VCaP (ATCC CRL-2876) was plated in 6 well plates using complete Dulbecco's Modified Eagle's Medium. On the third day, compounds of present invention were added to cells from 10 mM stocks made in DMSO (Sigma Cat no. D2650). Each concentration of compound was tested with DMSO not exceeding final percentage of 0.3 in the cells. Cells were incubated with the compound for 16 hours followed by harvesting with 1×RIPA lysis buffer (Thermo Fischer, catalogue number #89900) containing protease inhibitor cocktail (Sigma catalogue number #P-8340). Equal amount of protein was loaded on SDS PAGE gel for electrophoresis. Western blot was carried out for detection of either SMARCA2 (Cell signalling technologies, catalogue number #11966) or SMARCA4 antibody (Cell signalling technologies, catalogue number #52251). Beta-Tubulin antibody (Cell signalling technologies, catalogue number #86298) was used as loading control. Percentage of SMARCA2 or SMARCA4 degradation was calculated using formula % Degradation=100−(normalized band intensity in treated sample/normalized band intensity in DMSO sample)*100.

SMARCA4 = target: T2, SMARCA4 (Homo sapiens, UniProt P51532); assay: SMARCA4 degradation in VCaP cells by Western blot; conditions: 16 hours
T2 construct: Determination of SMARCA2 and SMARCA4 Degradation in VCaP Cells by Western Blot; endogenous in cells; host or cells: VCaP (ATCC CRL-2876)
T2 sequence (P51532 whole entry): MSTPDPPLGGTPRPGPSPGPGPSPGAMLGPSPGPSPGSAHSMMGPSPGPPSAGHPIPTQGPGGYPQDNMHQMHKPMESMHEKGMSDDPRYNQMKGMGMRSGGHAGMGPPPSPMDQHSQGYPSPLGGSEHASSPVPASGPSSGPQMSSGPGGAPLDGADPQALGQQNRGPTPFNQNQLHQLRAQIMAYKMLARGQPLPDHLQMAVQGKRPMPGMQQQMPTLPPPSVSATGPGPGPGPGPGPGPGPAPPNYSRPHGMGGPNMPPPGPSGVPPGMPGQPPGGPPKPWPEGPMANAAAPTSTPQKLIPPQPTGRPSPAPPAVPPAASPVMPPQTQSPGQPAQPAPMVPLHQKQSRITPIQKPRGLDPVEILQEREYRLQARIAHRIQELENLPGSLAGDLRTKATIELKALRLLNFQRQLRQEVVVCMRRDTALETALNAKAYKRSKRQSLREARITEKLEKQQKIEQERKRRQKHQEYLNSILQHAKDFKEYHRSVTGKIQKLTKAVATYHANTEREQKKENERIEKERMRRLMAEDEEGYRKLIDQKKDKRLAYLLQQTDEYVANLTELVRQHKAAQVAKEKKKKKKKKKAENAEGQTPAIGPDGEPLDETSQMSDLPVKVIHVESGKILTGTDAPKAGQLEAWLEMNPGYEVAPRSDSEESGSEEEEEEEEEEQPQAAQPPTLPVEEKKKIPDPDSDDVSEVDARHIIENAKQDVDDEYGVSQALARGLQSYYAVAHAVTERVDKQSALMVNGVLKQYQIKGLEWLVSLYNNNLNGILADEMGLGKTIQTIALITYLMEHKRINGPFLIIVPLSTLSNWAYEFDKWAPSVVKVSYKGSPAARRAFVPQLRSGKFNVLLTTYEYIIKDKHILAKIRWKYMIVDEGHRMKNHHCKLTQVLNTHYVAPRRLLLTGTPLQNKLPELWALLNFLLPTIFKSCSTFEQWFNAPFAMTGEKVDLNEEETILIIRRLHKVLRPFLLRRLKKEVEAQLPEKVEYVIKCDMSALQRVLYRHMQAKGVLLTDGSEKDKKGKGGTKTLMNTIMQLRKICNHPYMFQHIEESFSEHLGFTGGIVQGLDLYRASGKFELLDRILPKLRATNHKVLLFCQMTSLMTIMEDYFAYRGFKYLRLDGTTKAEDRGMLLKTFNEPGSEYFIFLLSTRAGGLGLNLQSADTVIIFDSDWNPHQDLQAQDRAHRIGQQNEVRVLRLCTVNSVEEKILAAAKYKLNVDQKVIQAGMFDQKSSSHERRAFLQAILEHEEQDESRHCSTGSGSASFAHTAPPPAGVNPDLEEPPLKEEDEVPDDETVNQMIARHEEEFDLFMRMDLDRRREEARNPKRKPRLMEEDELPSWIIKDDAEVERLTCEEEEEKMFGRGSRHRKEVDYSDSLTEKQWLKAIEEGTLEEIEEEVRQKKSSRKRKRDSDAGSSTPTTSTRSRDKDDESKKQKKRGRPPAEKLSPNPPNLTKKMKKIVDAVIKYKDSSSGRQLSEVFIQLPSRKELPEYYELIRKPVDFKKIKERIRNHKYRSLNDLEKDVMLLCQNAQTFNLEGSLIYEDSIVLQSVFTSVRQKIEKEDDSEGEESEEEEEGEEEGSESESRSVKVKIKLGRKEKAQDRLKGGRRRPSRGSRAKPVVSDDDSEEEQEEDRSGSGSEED
Description: On the third day, compounds of present invention were added to cells from 10 mM stocks made in DMSO (Sigma Cat no. D2650). Each concentration of compound was tested with DMSO not exceeding final percentage of 0.3 in the cells. […] Equal amount of protein was loaded on SDS PAGE gel for electrophoresis. […] Percentage of SMARCA2 or SMARCA4 degradation was calculated using formula % Degradation=100−(normalized band intensity in treated sample/normalized band intensity in DMSO sample)*100.

SK-MEL-5 cells = assay: Anti proliferative activity, Cell Titer Glo assay, SK-MEL-5; conditions: Homo sapiens, SK-MEL-5, SK-MEL-5 cells, retreatment Day 4, terminated day 8, CellTiter-Glo
Description: (§1) Example-P3: Determination of Anti Proliferative Activity of Compounds by Cell Titer Glo®(Promega) Assay
(§2) Cells were seeded into 96-well plates and the plate was incubated in 37 degrees incubator overnight. The next day, compounds were diluted 3-fold to cover 9-point concentration range in DMSO. Intermediate plate dilution was prepared in media followed with compound treatment in cells. Retreatment of cells with compound dilutions was performed on Day 4 and assay was terminated on day 8 for SK-MEL-5 cells using CellTiter-Glo and the plate was kept on orbital shaker for 20 minutes at RT. Assay was terminated on day 6 for RERF-LC-A1 without a compound retreatment. Luminescence signal was recorded on VICTOR^3 instrument. Percent inhibition of proliferation was calculated at each concentration and plotted against the compound concentration. EC50 value was calculated using GraphPad software.

RERF-LC-A1 cell line = assay: Anti proliferative activity, Cell Titer Glo assay, RERF-LC-A1; conditions: 144 h; RERF-LC-A1 cells, terminated day 6 without retreatment, CellTiter-Glo
Description: as §1, §2
Herein the group “++” refers to EC50 (RERF-LC-A1) values lower than 100 nM and “+” refers to EC50 (RERF-LC-A1) values greater than 100 nM.

T1 sequence (P51531 whole entry): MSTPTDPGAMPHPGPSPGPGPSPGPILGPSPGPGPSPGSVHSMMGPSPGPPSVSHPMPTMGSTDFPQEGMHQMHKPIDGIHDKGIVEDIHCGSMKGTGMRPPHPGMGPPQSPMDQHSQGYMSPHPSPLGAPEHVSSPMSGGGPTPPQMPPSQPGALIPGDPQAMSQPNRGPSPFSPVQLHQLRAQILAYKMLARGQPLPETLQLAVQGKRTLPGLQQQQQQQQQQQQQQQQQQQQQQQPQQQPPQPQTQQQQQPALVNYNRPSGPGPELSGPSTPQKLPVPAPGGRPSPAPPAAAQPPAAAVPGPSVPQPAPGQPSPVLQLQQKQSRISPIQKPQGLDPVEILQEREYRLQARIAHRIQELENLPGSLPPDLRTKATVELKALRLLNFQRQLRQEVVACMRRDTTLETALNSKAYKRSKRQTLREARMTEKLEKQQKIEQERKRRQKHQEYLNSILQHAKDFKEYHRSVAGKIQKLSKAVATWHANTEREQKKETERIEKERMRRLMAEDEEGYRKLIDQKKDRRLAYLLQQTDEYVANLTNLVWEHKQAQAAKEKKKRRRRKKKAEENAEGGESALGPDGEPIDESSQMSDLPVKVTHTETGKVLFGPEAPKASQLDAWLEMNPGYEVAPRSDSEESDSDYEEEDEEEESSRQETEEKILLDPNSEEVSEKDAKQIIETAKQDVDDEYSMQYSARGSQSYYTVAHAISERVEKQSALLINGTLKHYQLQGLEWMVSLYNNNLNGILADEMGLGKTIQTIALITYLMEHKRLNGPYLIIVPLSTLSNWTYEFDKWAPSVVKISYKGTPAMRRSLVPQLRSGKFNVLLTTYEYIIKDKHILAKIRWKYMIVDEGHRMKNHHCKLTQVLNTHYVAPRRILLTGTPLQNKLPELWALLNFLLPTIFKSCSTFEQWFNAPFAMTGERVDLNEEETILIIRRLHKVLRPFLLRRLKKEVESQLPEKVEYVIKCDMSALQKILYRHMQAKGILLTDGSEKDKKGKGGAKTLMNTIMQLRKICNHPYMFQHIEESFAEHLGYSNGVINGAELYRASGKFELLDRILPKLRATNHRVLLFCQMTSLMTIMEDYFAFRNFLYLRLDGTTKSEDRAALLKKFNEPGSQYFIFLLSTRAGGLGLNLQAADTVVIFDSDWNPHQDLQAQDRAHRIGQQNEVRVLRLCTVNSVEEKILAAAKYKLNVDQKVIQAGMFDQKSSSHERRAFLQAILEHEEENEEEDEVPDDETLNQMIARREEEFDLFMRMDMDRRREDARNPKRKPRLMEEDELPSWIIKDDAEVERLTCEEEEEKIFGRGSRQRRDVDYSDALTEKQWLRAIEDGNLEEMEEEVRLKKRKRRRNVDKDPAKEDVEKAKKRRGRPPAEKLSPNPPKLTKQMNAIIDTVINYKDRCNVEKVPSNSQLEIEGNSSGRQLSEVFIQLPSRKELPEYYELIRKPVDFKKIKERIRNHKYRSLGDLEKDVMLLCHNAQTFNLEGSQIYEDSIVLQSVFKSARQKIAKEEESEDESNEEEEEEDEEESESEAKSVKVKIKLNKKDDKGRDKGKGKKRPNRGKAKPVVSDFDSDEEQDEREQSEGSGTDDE

## Cc1ncsc1-c1ccc([C@H](C)NC(=O)[C@@H]2C[C@@H](O)CN2C(=O)[C@@H](NC(=O)CN2CCN(c3ccc(-c4cnnc(-c5ccccc5O)c4)cc3)CC2)C(C)(C)C)cc1 [Compound 2, (2S,4R)-4-hydroxy-1-((S)-2-(2-(4-(4-(6-(2-hydroxyphenyl)pyridazin-4-yl)phenyl)piperazin-1-yl)acetamido)-3,3-dimethylbutanoyl)-N-((S)-1-(4-(4-methylthiazol-5-yl)phenyl)ethyl)pyrrolidine-2-carboxamide]
SMARCA2
  Percent degradation (at 100 nM) SMARCA2: 94%
SMARCA4
  Percent degradation (at 100 nM) SMARCA4: 0%
SK-MEL-5 cells
  pEC50: > 6.60
RERF-LC-A1 cell line
  pEC50: > 7.00

## Cc1ncsc1-c1ccc([C@H](C)NC(=O)[C@@H]2C[C@@H](O)CN2C(=O)C(c2cc(OCCOc3ccc(-c4cnnc(-c5ccccc5O)c4)cc3)no2)C(C)C)cc1 (mixture of isomers) [Compound 42, (2S,4R)-4-hydroxy-1-(2-(3-(2-(4-(6-(2-hydroxyphenyl)pyridazin-4-yl)phenoxy)ethoxy)isoxazol-5-yl)-3-methylbutanoyl)-N-((S)-1-(4-(4-methylthiazol-5-yl)phenyl)ethyl)pyrrolidine-2-carboxamide]
SMARCA2
  Percent degradation (at 100 nM) SMARCA2: 57%
RERF-LC-A1 cell line
  pEC50: < 7.00

## Cc1ncsc1-c1ccc([C@H](C)NC(=O)[C@@H]2C[C@@H](O)CN2C(=O)[C@@H](NC(=O)CN2CC=C(c3ccc(-c4cnnc(-c5ccccc5O)c4)cc3)CC2)C(C)(C)C)cc1 [Compound 10, (2S,4R)-4-hydroxy-1-((S)-2-(2-(4-(4-(6-(2-hydroxyphenyl)pyridazin-4-yl)phenyl)-3,6-dihydropyridin-1(2H)-yl)acetamido)-3,3-dimethylbutanoyl)-N-((S)-1-(4-(4-methylthiazol-5-yl)phenyl)ethyl)pyrrolidine-2-carboxamide]
SMARCA2
  Percent degradation (at 100 nM) SMARCA2: 83%
SMARCA4
  Percent degradation (at 100 nM) SMARCA4: 0%
SK-MEL-5 cells
  pEC50: 6.30 to 6.60
RERF-LC-A1 cell line
  pEC50: > 7.00

## Cc1ncsc1-c1ccc([C@H](C)NC(=O)[C@@H]2C[C@@H](O)CN2C(=O)[C@@H](NC(=O)C(C)N2CCC(c3ccc(-c4cnnc(-c5ccccc5O)c4)cc3)CC2)C(C)(C)C)cc1 (stereo partly drawn) [Compound 14, (2S,4R)-4-hydroxy-1-((2S)-2-(2-(4-(4-(6-(2-hydroxyphenyl)pyridazin-4-yl)phenyl)piperidin-1-yl)propanamido)-3,3-dimethylbutanoyl)-N-((S)-1-(4-(4-methylthiazol-5-yl)phenyl)ethyl)pyrrolidine-2-carboxamide]
SK-MEL-5 cells
  pEC50: < 6.30
RERF-LC-A1 cell line
  pEC50: > 7.00

## Cc1ncsc1-c1ccc([C@H](C)NC(=O)[C@@H]2C[C@@H](O)CN2C(=O)[C@@H](NC(=O)CC2CCN(c3ccc(-c4cnnc(-c5ccccc5O)c4)cc3)CC2)C(C)(C)C)cc1 [Compound 6, (2S,4R)-4-hydroxy-1-((S)-2-(2-(1-(4-(6-(2-hydroxyphenyl)pyridazin-4-yl)phenyl)piperidin-4-yl)acetamido)-3,3-dimethylbutanoyl)-N-((S)-1-(4-(4-methylthiazol-5-yl)phenyl)ethyl)pyrrolidine-2-carboxamide]
SMARCA2
  Percent degradation (at 100 nM) SMARCA2: 97%
SMARCA4
  Percent degradation (at 100 nM) SMARCA4: 40%
SK-MEL-5 cells
  pEC50: > 6.60
RERF-LC-A1 cell line
  pEC50: > 7.00

## Cc1ncsc1-c1ccc([C@H](C)NC(=O)[C@@H]2C[C@@H](O)CN2C(=O)[C@@H](NC(=O)CN2CC3CCC(C2)N3c2ccc(-c3cnnc(-c4ccccc4O)c3)cc2)C(C)(C)C)cc1 [Compound 24, (2S,4R)-4-hydroxy-1-((2S)-2-(2-(8-(4-(6-(2-hydroxyphenyl)pyridazin-4-yl)phenyl)-3,8-diazabicyclo[3.2.1]octan-3-yl)acetamido)-3,3-dimethylbutanoyl)-N-((S)-1-(4-(4-methylthiazol-5-yl)phenyl)ethyl)pyrrolidine-2-carboxamide]
SMARCA2
  Percent degradation (at 100 nM) SMARCA2: 96%
SMARCA4
  Percent degradation (at 100 nM) SMARCA4: 15%
SK-MEL-5 cells
  pEC50: > 6.60
RERF-LC-A1 cell line
  pEC50: > 7.00

## Cc1ncsc1-c1ccc([C@H](C)NC(=O)[C@@H]2C[C@@H](O)CN2C(=O)[C@@H](NC(=O)C(C)N2CCN(c3ccc(-c4cnnc(-c5ccccc5O)c4)cc3)CC2)C(C)(C)C)cc1 (some centres unmarked) [Compound 28]
SMARCA2
  Percent degradation (at 100 nM) SMARCA2: 38%
SMARCA4
  Percent degradation (at 100 nM) SMARCA4: 0%
SK-MEL-5 cells
  pEC50: 6.30 to 6.60

## Cc1ncsc1-c1ccc([C@H](C)NC(=O)[C@@H]2C[C@@H](O)CN2C(=O)[C@@H](NC(=O)CN2CC3(CC(c4ccc(-c5cnnc(-c6ccccc6O)c5)cc4)C3)C2)C(C)(C)C)cc1 [Compound 31, (2S,4R)-4-hydroxy-1-((S)-2-(2-(6-(4-(6-(2-hydroxyphenyl)pyridazin-4-yl)phenyl)-2-azaspiro[3.3]heptan-2-yl)acetamido)-3,3-dimethylbutanoyl)-N-((S)-1-(4-(4-methylthiazol-5-yl)phenyl)ethyl)pyrrolidine-2-carboxamide]
SMARCA2
  Percent degradation (at 100 nM) SMARCA2: 89%
SMARCA4
  Percent degradation (at 100 nM) SMARCA4: 0%
SK-MEL-5 cells
  pEC50: 6.30 to 6.60

## Cc1ncsc1-c1ccc([C@H](C)NC(=O)[C@@H]2C[C@@H](O)CN2C(=O)[C@@H](NC(=O)C(C)N2CCN(c3ccc(-c4cnnc(-c5ccccc5O)c4)cc3)CC2)C(C)(C)C)cc1 (single isomer, unassigned) [Compound 30]
SMARCA2
  Percent degradation (at 100 nM) SMARCA2: 79%
SMARCA4
  Percent degradation (at 100 nM) SMARCA4: 0%
SK-MEL-5 cells
  pEC50: > 6.60

## Cc1ncsc1-c1ccc([C@H](C)NC(=O)[C@@H]2C[C@@H](O)CN2C(=O)[C@@H](NC(=O)CCCCNc2ccc(-c3cnnc(-c4ccccc4O)c3)cc2)C(C)(C)C)cc1 [Compound 36, (2S,4R)-4-hydroxy-1-((S)-2-(5-((4-(6-(2-hydroxyphenyl)pyridazin-4-yl)phenyl)amino)pentanamido)-3,3-dimethylbutanoyl)-N-((S)-1-(4-(4-methylthiazol-5-yl)phenyl)ethyl)pyrrolidine-2-carboxamide]
SMARCA2
  Percent degradation (at 100 nM) SMARCA2: 90%
SMARCA4
  Percent degradation (at 100 nM) SMARCA4: 19%
SK-MEL-5 cells
  pEC50: > 6.60

## Cc1ncsc1-c1ccc([C@H](C)NC(=O)[C@@H]2C[C@@H](O)CN2C(=O)[C@@H](NC(=O)C2CCN(c3ccc(-c4cnnc(-c5ccccc5O)c4)cc3)CC2)C(C)(C)C)cc1 [Compound 16, N-((S)-1-((2S,4R)-4-hydroxy-2-(((S)-1-(4-(4-methylthiazol-5-yl)phenyl)ethyl)carbamoyl)pyrrolidin-1-yl)-3,3-dimethyl-1-oxobutan-2-yl)-1-(4-(6-(2-hydroxyphenyl)pyridazin-4-yl)phenyl)piperidine-4-carboxamide]
SMARCA2
  Percent degradation (at 100 nM) SMARCA2: 76%
SMARCA4
  Percent degradation (at 100 nM) SMARCA4: 0%
SK-MEL-5 cells
  pEC50: > 6.60

## Cc1ncsc1-c1ccc([C@H](C)NC(=O)[C@@H]2C[C@@H](O)CN2C(=O)[C@@H](NC(=O)CN2C3CCC2CC(c2ccc(-c4cnnc(-c5ccccc5O)c4)cc2)C3)C(C)(C)C)cc1 (stereo partly drawn) [Compound 25, (2S,4R)-4-hydroxy-1-((2S)-2-(2-(3-(4-(6-(2-hydroxyphenyl)pyridazin-4-yl)phenyl)-8-azabicyclo[3.2.1]octan-8-yl)acetamido)-3,3-dimethylbutanoyl)-N-((S)-1-(4-(4-methylthiazol-5-yl)phenyl)ethyl)pyrrolidine-2-carboxamide]
SMARCA2
  Percent degradation (at 100 nM) SMARCA2: 75%
SMARCA4
  Percent degradation (at 100 nM) SMARCA4: 0%
SK-MEL-5 cells
  pEC50: 6.30 to 6.60

## Cc1ncsc1-c1ccc([C@H](C)NC(=O)[C@@H]2C[C@@H](O)CN2C(=O)[C@@H](NC(=O)C2CCC(c3ccc(-c4cnnc(-c5ccccc5O)c4)cc3)CC2)C(C)(C)C)cc1 (stereo partly drawn) [Compound 18, (2S,4R)-4-hydroxy-1-((S)-2-(4-(4-(6-(2-hydroxyphenyl)pyridazin-4-yl)phenyl)cyclohexane-1-carboxamido)-3,3-dimethylbutanoyl)-N-((S)-1-(4-(4-methylthiazol-5-yl)phenyl)ethyl)pyrrolidine-2-carboxamide]
SMARCA2
  Percent degradation (at 100 nM) SMARCA2: 95%
SMARCA4
  Percent degradation (at 100 nM) SMARCA4: 0%
SK-MEL-5 cells
  pEC50: > 6.60

From patent publication US12570650B2, “6-substituted pyridazine compounds as SMARCA2 and/or SMARCA4 degraders” (Aurigene Oncology Limited, priority 2020, dated 2026)
